The text below walks through data of US8455475B2 (Gruenenthal GmbH, priority 2009, dated 2013).

SMILES strings stand for the structures.

The target in experiment [1] is T1, rat B1R (bradykinin receptor 1) (Rattus norvegicus, UniProt P97583).
T1 construct: expressed in transfected cells; host or cells: CHO K1 cells
T1 sequence (P97583 1-337): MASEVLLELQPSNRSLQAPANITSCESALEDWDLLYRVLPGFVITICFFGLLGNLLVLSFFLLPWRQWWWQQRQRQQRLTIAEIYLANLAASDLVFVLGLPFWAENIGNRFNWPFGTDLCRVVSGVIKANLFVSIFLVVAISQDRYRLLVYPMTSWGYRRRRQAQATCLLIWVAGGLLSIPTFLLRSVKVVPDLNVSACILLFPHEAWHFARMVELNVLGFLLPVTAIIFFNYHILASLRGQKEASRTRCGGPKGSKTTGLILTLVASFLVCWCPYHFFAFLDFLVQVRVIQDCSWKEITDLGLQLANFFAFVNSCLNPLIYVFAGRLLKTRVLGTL
As to the kind of experiment: FLIPR Ca2+ assay (Fluo-4) on CHO K1 cells stably transfected with the B1R gene of the rat (rB1R cells): % inhibition at 10 μM / IC50, agonist Des-Arg9-bradykinin. It is filed as cell-based. As to conditions: for inhibition at 10 µM: CHO-K1, rat B1R. The method in brief: (§1)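 Stable CHO K1 lines, Fluo-4 dye, probenecid-containing buffer. Cpd 10 μM or dose range, 10–20 min, then EC80 agonist (h: Lys-Des-Arg9-BK; r: Des-Arg9-BK). Readout peak FC; % inhibition vs max; IC50 from n=2–3, N≥2.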

The target in experiment [2] is T2, human B1R (bradykinin receptor 1) (Homo sapiens, UniProt P46663).
T2 construct: expressed in transfected cells; host or cells: CHO K1 cells
T2 sequence (P46663 1-353): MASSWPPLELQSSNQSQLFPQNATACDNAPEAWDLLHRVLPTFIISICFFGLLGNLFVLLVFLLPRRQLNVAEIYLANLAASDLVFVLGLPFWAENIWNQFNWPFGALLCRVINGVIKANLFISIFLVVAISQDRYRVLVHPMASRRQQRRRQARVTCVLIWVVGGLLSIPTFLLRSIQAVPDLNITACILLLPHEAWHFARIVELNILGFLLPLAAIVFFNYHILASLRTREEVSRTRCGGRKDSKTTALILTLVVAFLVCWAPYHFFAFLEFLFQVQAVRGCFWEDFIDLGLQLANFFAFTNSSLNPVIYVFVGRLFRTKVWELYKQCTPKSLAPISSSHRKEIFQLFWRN
Description: FLIPR Ca2+ assay (Fluo-4) on CHO K1 cells stably transfected with the human B1R gene (hB1R cells): % inhibition at 10 μM / IC50, agonist Lys-Des-Arg9-bradykinin. It is filed as cell-based. As to conditions: for inhibition at 10 µM: CHO-K1, human B1R. In outline: as §1

In the case of `O=C(NC1CCc2ccc(C(=O)N3CCC4(CC3)CCN(c3ccncc3)CC4)cc21)c1cc(F)c(F)cc1Cl` (centres unmarked) [IND_CC-228, 2-Chloro-4,5-difluoro-N-[6-(9-pyridin-4-yl-3,9-diazaspiro[5.5]undecane-3-carbonyl)-2,3-dihydro-1H-inden-1-yl]-benzamide], the inhibition at 10 µM in experiment [1] turned out to be 104%; in experiment [2], 100%.
With `O=C(NC1CCc2ccc(C(=O)N3CCC4(CC3)CCN(c3ccc(C(F)(F)F)cc3)CC4)cc21)c1cccc(Cl)c1Cl` (centres unmarked) [IND_CC-281, 2,3-Dichloro-N-[6-[9-[4-(trifluoromethyl)-phenyl]-3,9-diazaspiro[5.5]undecane-3-carbonyl]-2,3-dihydro-1H-inden-1-yl]-benzamide], the inhibition at 10 µM in experiment [1] worked out at 105%; in experiment [2] it was 84%.
Turning to `COc1ccc(S(=O)(=O)N[C@@H]2CCc3ccc(C(=O)N4CCC5(CCN(c6ccncc6)CC5)C4)cc32)c(C(F)(F)F)c1` [Example H-144, 4-Methoxy-N-[(1R)-6-(8-pyridin-4-yl-3,8-diazaspiro[4.5]decane-3-carbonyl)-2,3-dihydro-1H-inden-1-yl]-2-(trifluoromethyl)-benzenesulfonic acid amide], the results for the inhibition at 10 µM in experiment [1] and in experiment [2] were 104% and 99%, respectively.
For `O=C(c1ccc2c(c1)[C@H](NS(=O)(=O)c1cccc(Cl)c1Cl)CC2)N1CCC2(CCN(c3ccncc3)CC2)C1` [Example H-113, 2,3-Dichloro-N-[(1R)-6-(8-pyridin-4-yl-3,8-diazaspiro[4.5]decane-3-carbonyl)-2,3-dihydro-1H-inden-1-yl]-benzenesulfonic acid amide], in that order: 92% and 99%.
Regarding `O=C(NC1CCc2ccc(C(=O)N3CCC4(CCN(c5ccncc5)CC4)C3)cc21)c1ccccc1Cl` (centres unmarked) [IND_CC-293, 2-Chloro-N-[6-(8-pyridin-4-yl-2,8-diazaspiro[4.5]decane-2-carbonyl)-2,3-dihydro-1H-inden-1-yl]-benzamide], in experiment [1], the “% Inhibition (rat B1R) at 10 μM” value came out at 106%. The “% Inhibition (human B1R) at 10 μM” value in experiment [2] is 100%.
Turning to `Cc1cccc(C)c1C(=O)NC1CCc2ccc(C(=O)N3CCC4(CC3)CCN(c3ccncc3)C4)cc21` (centres unmarked) [IND_CC-295, 2,6-Dimethyl-N-[6-(2-pyridin-4-yl-2,8-diazaspiro[4.5]decane-8-carbonyl)-2,3-dihydro-1H-inden-1-yl]-benzamide], the inhibition at 10 µM is 106% in experiment [1] and 96% in experiment [2].
As to `O=C(N[C@@H]1CCc2ccc(C(=O)N3CCC4(CCC(C(=O)N[C@H]5CN6CCC5CC6)CC4)CC3)cc21)c1ccccc1Cl` [Example H-52, N-[(5R)-1-Azabicyclo[2.2.2]octan-5-yl]-3-[(3R)-3-[(2-chloro-benzoyl)amino]-2,3-dihydro-1H-indene-5-carbonyl]-3-azaspiro[5.5]undecane-9-carboxylic acid amide], the figures for the inhibition at 10 µM in experiment [1] and in experiment [2] were 46% and 28%, respectively.
Turning to `O=C(NCc1ccccc1Cl)NC1CCc2ccc(C(=O)N3CCC4(CC3)CCN(c3ccncc3)C4)cc21` (centres unmarked) [Ind_CC-048, 1-[(2-chlorophenyl)-methyl]-3-[6-(2-pyridin-4-yl-2,8-diazaspiro[4.5]decane-8-carbonyl)-2,3-dihydro-1H-inden-1-yl]-urea], the inhibition at 10 µM in experiment [1] is 88%; in experiment [2], 98%.
For the molecule `O=C(N[C@@H]1CCCc2ccc(C(=O)N3CCC4(CCCN(c5ccncc5)C4)C3)cc21)c1ccccc1Cl` (stereo partly drawn) [Example H-81, 2-Chloro-N-[(1R)-7-(7-pyridin-4-yl-3,7-diazaspiro[4.5]decane-3-carbonyl)-1,2,3,4-tetrahydro-naphthalen-1-yl]-benzamide], the inhibition at 10 µM in experiment [1] is 103%; in experiment [2] it was 78%.
Take `CN(C(=O)c1cc(C(F)(F)F)ccc1Cl)C1CCc2ccc(C(=O)N3CCC4(CC3)CCN(c3ccncc3)CC4)cc21` (centres unmarked) [IND_CC-202, 2-Chloro-N-methyl-N-[6-(9-pyridin-4-yl-3,9-diazaspiro[5.5]undecane-3-carbonyl)-2,3-dihydro-1H-inden-1-yl]-5-(trifluoromethyl)-benzamide]: the inhibition at 10 µM in experiment [1] is 103%; in experiment [2] it was 86%.
Consider `O=C(N[C@@H]1CCc2ccc(C(=O)N3CCC4(CCN(c5ccncc5)CC4)C3)cc21)c1ccccc1F` [Example H-101, 2-Fluoro-N-[(1R)-6-(8-pyridin-4-yl-3,8-diazaspiro[4.5]decane-3-carbonyl)-2,3-dihydro-1H-inden-1-yl]-benzamide], for which the inhibition at 10 µM in experiment [1] is 107%; in experiment [2], 97%.
As to `COc1ccc(C(=O)NC2CC(C)(C)c3ccc(C(=O)N4CCC5(CC4)CCN(c4ccncc4)CC5)cc32)c(Cl)c1` (centres unmarked) [IND_CC-246, 2-Chloro-N-[3,3-dimethyl-6-(3-pyridin-4-yl-3,9-diazaspiro[5.5]undecane-9-carbonyl)-1,2-dihydro-inden-1-yl]-4-methoxy-benzamide], the inhibition at 10 µM in experiment [1] was determined as 100%; in experiment [2], 99%.
Take `O=C(NC1CCc2ccc(C(=O)N3CCC4(CC3)CCN(c3ccncc3)C4)cc21)c1cc(C(F)(F)F)ccc1Cl` (centres unmarked) [IND_CC-218, 2-Chloro-N-[6-(2-pyridin-4-yl-2,8-diazaspiro[4.5]decane-8-carbonyl)-2,3-dihydro-1H-inden-1-yl]-5-(trifluoromethyl)-benzamide]: the inhibition at 10 µM in experiment [1] was found to be 103%; in experiment [2], 94%.
For `CN(C(=O)c1ccccc1C(F)(F)F)C1CCc2ccc(C(=O)N3CCC4(CC3)CCN(c3ccncc3)CC4)cc21` (centres unmarked) [Ind_CC-015, N-methyl-N-[6-(9-pyridin-4-yl-3,9-diazaspiro[5.5]undecane-3-carbonyl)-2,3-dihydro-1H-inden-1-yl]-2-(trifluoromethyl)-benzamide], in that order: 101% and 100%.
For `O=C(N[C@@H]1CCc2ccc(C(=O)N3CCC4(CC3)CCN(c3ccncc3)CC4)cc21)c1cccc(Cl)c1Cl` [Example H-95, 2,3-Dichloro-N-[(1R)-6-(9-pyridin-4-yl-3,9-diazaspiro[5.5]undecane-3-carbonyl)-2,3-dihydro-1H-inden-1-yl]-benzamide], in that order: 98% and 100%.
For `O=C(NC1CCc2ccc(C(=O)N3CCC4(CC3)CCN(c3ccncc3)C4)cc21)c1ccccc1Cl` (centres unmarked) [IND_CC-271, 2-Chloro-N-[6-(2-pyridin-4-yl-2,8-diazaspiro[4.5]decane-8-carbonyl)-2,3-dihydro-1H-inden-1-yl]-benzamide], the “% Inhibition (rat B1R) at 10 μM” value in experiment [1] was 106%. The “% Inhibition (human B1R) at 10 μM” value in experiment [2] was found to be 100%.
In the case of `CC1(C)Cc2ccc(C(=O)N3CCC4(CC3)CCN(c3ccncc3)CC4)cc2C1NS(=O)(=O)Cc1ccccc1C(F)(F)F` (centres unmarked) [IND_CC-238, N-[2,2-Dimethyl-6-(9-pyridin-4-yl-3,9-diazaspiro[5.5]undecane-3-carbonyl)-1,3-dihydro-inden-1-yl]-1-[2-(trifluoromethyl)-phenyl]-methanesulfonic acid amide], the inhibition at 10 µM in experiment [1] is 100%; in experiment [2], 99%.
`O=C(N[C@@H]1CCOc2c(F)cc(C(=O)N3CCC4(CC3)CCN(c3ccncc3)CC4)cc21)c1ccccc1Cl` [Example H-78]: the inhibition at 10 µM was determined as 104% in experiment [1] and 100% in experiment [2].
For `COc1ccc(N2CCC3(CCN(C(=O)c4ccc5c(c4)[C@H](NC(=O)c4ccccc4Cl)CC5)C3)CC2)cc1` [Example H-139, 2-Chloro-N-[(1R)-6-[8-(4-methoxyphenyl)-3,8-diazaspiro[4.5]decane-3-carbonyl]-2,3-dihydro-1H-inden-1-yl]-benzamide], in that order: 98% and 31%.
As for `COc1ccc(C(=O)N[C@@H]2CCc3ccc(C(=O)N4CCC5(CCN(c6ccncc6)CC5)C4)cc32)c(F)c1` [Example H-108, 2-Fluoro-4-methoxy-N-[(1R)-6-(8-pyridin-4-yl-3,8-diazaspiro[4.5]decane-3-carbonyl)-2,3-dihydro-1H-inden-1-yl]-benzamide], the inhibition at 10 µM in experiment [1] worked out at 111%; in experiment [2], 100%.
For `O=C(c1cccc2c1CC[C@H]2NS(=O)(=O)c1ccccc1Cl)N1CCC2(CC1)CCN(c1ccncc1)CC2` [Example H-167, 2-Chloro-N-[(1R)-4-(9-pyridin-4-yl-3,9-diazaspiro[5.5]undecane-3-carbonyl)-2,3-dihydro-1H-inden-1-yl]-benzenesulfonic acid amide], in that order: 81% and 35%.
For `CN(C)C1(c2ccc(F)cc2)CCC2(CCN(C(=O)c3ccc4c(c3)C(N(C(=O)c3ccccc3Cl)C3CC3)CC4)CC2)CC1` (centres unmarked) [Ind_CC-117, 2-chloro-N-cyclopropyl-N-[6-[9-dimethylamino-9-(4-fluorophenyl)-3-azaspiro[5.5]undecane-3-carbonyl]-2,3-dihydro-1H-inden-1-yl]-benzamide], in that order: 77% and 56%.

Broadly, the inhibition is the drop in the measured response relative to a control, in per cent.
